Data on 4 molecules can be found in patent US9593149B2, “Amylin and calcitonin receptor agonist” (Novo Nordisk A/S, priority 2014, dated 2017).

Structures are written as SMILES. ≈ marks a conversion by molar mass, not a printed value. Numbered stars: 1 amine (or outer) side, 2 acyl side, 3 side chain; on linkers, the order of the positions; unused ones are H or OH. Peptide text beside a SMILES is read from it. * marks the point of attachment. C20 diacid = O=C(O)CCCCCCCCCCCCCCCCCCC(=O)*; C18 diacid = O=C(O)CCCCCCCCCCCCCCCCC(=O)*; γGlu = O=C(O)[C@H](CCC(=O)[*:2])N[*:1]

As a reminder, the solubility is how much of the substance goes into solution per volume. A higher solubility goes with a readily soluble substance.

This series in a line: Assay (IV) determination of solubility. Type of series: physicochemical. How it is done: Assay (IV)—Determination of Solubility
The mimylin peptide was dissolved in water at ˜500 nmol/ml and mixed 1:1 with a series of buffers (100 mM glycylglycine pH 3.0, 100 mM glycylglycine pH 4.0, 100 mM glycylglycine pH 5.0, 100 mM bistrispropane pH 6.0, 100 mM bistrispropane pH 6.5, 100 mM bistrispropane pH 7.0, 100 mM bistrispropane pH 7.5, 100 mM bistrispropane pH 8.0).

Consider `CC(C)C[C@H](NC(=O)[C@H](C)NC(=O)[C@H](C)NC(=O)[C@@H](NC(=O)[C@H](CO)NC(=O)[C@H](CC(C)C)NC(=O)[C@H](CCC(=O)O)NC(=O)[C@H](CO)NC(=O)[C@H](C)NC(=O)CC[C@H](NC(=O)CCCCCCCCCCCCCCCCCCC(=O)O)C(=O)O)[C@@H](C)O)C(=O)NCC(=O)N[C@@H](CCCCN)C(=O)N[C@@H](CC(C)C)C(=O)N[C@@H](CO)C(=O)N[C@@H](C)C(=O)N[C@@H](CCC(=O)O)C(=O)N[C@@H](CC(C)C)C(=O)N[C@@H](Cc1cnc[nH]1)C(=O)N[C@@H](CCC(=O)O)C(=O)N[C@@H](CC(C)C)C(=O)N[C@@H](C)C(=O)N[C@H](C(=O)N[C@@H](Cc1ccc(O)cc1)C(=O)N1CCC[C@H]1C(=O)N[C@@H](CCCCN)C(=O)N[C@H](C(=O)N[C@@H](CCC(=O)O)C(=O)N[C@H](C(=O)NCC(=O)N[C@@H](CO)C(=O)NCC(=O)N[C@@H](CO)C(=O)N[C@@H](Cc1ccc(O)cc1)C(N)=O)[C@@H](C)O)[C@@H](C)O)[C@@H](C)O` [compound 101, [N-terminal(C20 diacid-gGlu), des1, 12K, 23Y, 25K, 30S, 31G, 33Y]mimylin] ({C20 diacid-γGlu}-ASELSTAALGKLSAELHELATYPKTETGSGSY-NH2), for which the Solubility result reads like this: (pH 3.0) “≧200 μM”; (pH 4.0) “≧200 μM”; (pH 5.0) “≧200 μM”; (pH 6.0) “≧200 μM”; (pH 6.5) “≧200 μM”; (pH 7.0) “≧200 μM”. Besides, the Solubility result by setting is: (pH 7.5) “≧200 μM”; (pH 8.0) “≧200 μM”.
As for `CC(C)C[C@H](NC(=O)CNC(=O)[C@H](CO)NC(=O)[C@H](C)NC(=O)[C@H](CCC(=O)O)NC(=O)CC[C@H](NC(=O)CCCCCCCCCCCCCCCCCCC(=O)O)C(=O)O)C(=O)N[C@@H](CO)C(=O)N[C@H](C(=O)N[C@@H](C)C(=O)N[C@@H](C)C(=O)N[C@@H](CC(C)C)C(=O)NCC(=O)N[C@@H](CCCNC(=N)N)C(=O)N[C@@H](CC(C)C)C(=O)N[C@@H](CO)C(=O)N[C@@H](CCC(N)=O)C(=O)N[C@@H](CCC(=O)O)C(=O)N[C@@H](CC(C)C)C(=O)N[C@@H](Cc1cnc[nH]1)C(=O)N[C@@H](CCC(=O)O)C(=O)N[C@@H](CC(C)C)C(=O)N[C@@H](CCC(N)=O)C(=O)N[C@H](C(=O)N[C@@H](Cc1ccc(O)cc1)C(=O)N1CCC[C@H]1C(=O)N[C@@H](CCCNC(=N)N)C(=O)N[C@H](C(=O)N[C@@H](CCC(=O)O)C(=O)N[C@H](C(=O)NCC(=O)N[C@@H](CO)C(=O)NCC(=O)N[C@H](C(=O)N[C@@H](Cc1ccc(O)cc1)C(N)=O)[C@@H](C)O)[C@@H](C)O)[C@@H](C)O)[C@@H](C)O)[C@@H](C)O` [compound 103, [N-terminal(C20 diacid-gGlu), 4G, 15Q, 21Q, 23Y, 30S, 31G, 32T, 33Y]mimylin] ({C20 diacid-γGlu}-EASGLSTAALGRLSQELHELQTYPRTETGSGTY-NH2), the Solubility entry reads like this: (pH 3.0) “≧200 μM”; (pH 4.0) “≧200 μM”; (pH 6.0) “≧200 μM”; (pH 6.5) “≧200 μM”; (pH 7.0) “≧200 μM”; (pH 7.5) “≧200 μM”. In addition, the Solubility entry (pH 8.0) is “≧200 μM”. Further, for the setting “pH 5.0”, the solubility at 18 h is recorded as 156 µM (≈ 620 µg/mL).
As to `CC(C)C[C@H](NC(=O)CNC(=O)[C@H](CO)NC(=O)[C@H](C)NC(=O)CC[C@H](NC(=O)CCCCCCCCCCCCCCCCCCC(=O)O)C(=O)O)C(=O)N[C@@H](CO)C(=O)N[C@H](C(=O)N[C@@H](C)C(=O)N[C@H](C(=O)N[C@@H](CC(C)C)C(=O)NCC(=O)N[C@@H](CCCNC(=N)N)C(=O)N[C@@H](CC(C)C)C(=O)N[C@@H](CO)C(=O)N[C@@H](C)C(=O)N[C@@H](CCC(=O)O)C(=O)N[C@@H](CC(C)C)C(=O)N[C@@H](Cc1cnc[nH]1)C(=O)N[C@@H](CCC(=O)O)C(=O)N[C@@H](CC(C)C)C(=O)N[C@@H](C)C(=O)N[C@H](C(=O)N[C@@H](Cc1ccc(O)cc1)C(=O)N1CCC[C@H]1C(=O)N[C@@H](CCCNC(=N)N)C(=O)N[C@H](C(=O)N[C@@H](CCC(=O)O)C(=O)N[C@H](C(=O)NCC(=O)N[C@@H](CO)C(=O)NCC(=O)N[C@H](C(=O)N[C@@H](Cc1ccc(O)cc1)C(N)=O)[C@@H](C)O)[C@@H](C)O)[C@@H](C)O)[C@@H](C)O)C(C)C)[C@@H](C)O` [compound 104, [N-terminal(C20 diacid-gGlu), des1, 4G, 9V, 23Y, 30S, 31G, 32T, 33Y]mimylin] ({C20 diacid-γGlu}-ASGLSTAVLGRLSAELHELATYPRTETGSGTY-NH2), the Solubility entry reads like this: (pH 3.0) “≧200 μM”; (pH 4.0) “≧200 μM”; (pH 6.0) “≧200 μM”; (pH 6.5) “≧200 μM”; (pH 7.0) “≧200 μM”; (pH 7.5) “≧200 μM”. Moreover, the Solubility result (pH 8.0) was “≧200 μM”. Also, the solubility at 18 h (pH 5.0) was 119 µM (≈ 448 µg/mL).
On to `CC(C)C[C@H](NC(=O)[C@H](CCCNC(=N)N)NC(=O)CNC(=O)[C@H](CC(C)C)NC(=O)[C@@H](NC(=O)[C@H](C)NC(=O)[C@@H](NC(=O)[C@@H](NC(=O)[C@H](CC(C)C)NC(=O)[C@H](CCC(=O)O)NC(=O)[C@H](CO)NC(=O)[C@H](C)NC(=O)CC[C@H](NC(=O)CCCCCCCCCCCCCCCCC(=O)O)C(=O)O)[C@@H](C)O)[C@@H](C)O)C(C)C)C(=O)N[C@@H](CCC(=O)O)C(=O)N[C@@H](C)C(=O)N[C@@H](CCC(=O)O)C(=O)N[C@@H](CC(C)C)C(=O)N[C@@H](Cc1cnc[nH]1)C(=O)N[C@@H](CCC(=O)O)C(=O)N[C@@H](CC(C)C)C(=O)N[C@H](C(=O)N[C@H](C(=O)N[C@@H](CC(C)C)C(=O)N1CCC[C@H]1C(=O)N[C@@H](CCCNC(=N)N)C(=O)N[C@H](C(=O)N[C@@H](CCC(=O)O)C(=O)N[C@H](C(=O)NCC(=O)N[C@H](C(=O)NCC(=O)N[C@H](C(=O)N1CCC[C@H]1C(N)=O)[C@@H](C)O)[C@@H](C)O)[C@@H](C)O)[C@@H](C)O)[C@@H](C)O)[C@@H](C)O` [compound 106, [N-terminal(C18 diacid-gGlu), des1, 6T, 9V, 14E, 21T, 30T, 31G, 32T]mimylin] ({C18 diacid-γGlu}-ASELTTAVLGRLEAELHELTTLPRTETGTGTP-NH2), for which the Solubility result by setting is: (pH 3.0) “≧200 μM”; (pH 4.0) “≧200 μM”; (pH 5.0) “≧200 μM”; (pH 6.0) “≧200 μM”; (pH 6.5) “≧200 μM”; (pH 7.0) “≧200 μM”. For the same molecule, the Solubility result reads like this: (pH 7.5) “≧200 μM”; (pH 8.0) “≧200 μM”.
